# Test results published in patent US5106610A, “Method for determining the diuretic potency of candidate drugs as inhibitors of the antidiuretic hormone-elicited water channel” (Childrens Medical Center Corporation, priority 1989, dated 1992).
# Tests used:
# [1] = tested on: human erythroycte membrane; details: NEM pretreatment; cited from earlier work
# ADH water channels = experiment: Proton permeability (PH+) of F-dextran loaded endocytic vesicles containing ADH water channels, stopped-flow fluorescence after imposed pH gradient; format: biochemical, Bufo marinus
# Description: Endocytic vesicles from the bladder of Dominican toads were ADH stimulated and loaded with fluoroescein bound to dextran (F-dextran) following the procedures of Harris et.al., "Apical Membrane Vesicles of ADH-Stimulated Toad Bladder Are Highly Water Permeable,"Am. J. Physiol. In Press, (1989); Harris, H. W., et.al., "Fluorescent Markers to Study Membrane Retrieval in Antidiuretic Hormone-Treated Toad Urinary Bladder," Am. J. Physiol., 251:C274-C284 (1986). Briefly, the procedures were as follows.
# Dominican toads (Bufo marinus), obtained from National Reagents, Bridgeport, CT, were employed. Urinary bladders of Bufo marinus were prepared and mounted on cannulas as small sacs. After a 20 minute interval of ADH stimulation (50 mU/ml), the apical surfaces of bladders were exposed to solutions containing 50 mg/ml of F-dextran (Av. Mol. Wt. 70,000 Daltons) and […], 30 Mm KCl, and […], pH 8.0, for an interval of 5 minutes followed by termination of ADH stimulation and incubation for an additional 10 minutes. The solution containing the F-dextran was then removed, the bladders rinsed to remove all extracellular F-dextran. The intermediate pellet fraction obtained from centrifugation of the cell was used. F-dextran loaded vesicles were washed repeatedly to remove F-dextran and partially purified by differential centrifugation. In the absence of ADH, no detectable fluorescence was present in this vesicle fraction despite apical membrane exposure to F-dextran.
# Standard cuvette fluorescence measurements were performed using an SLM-Aminco 500C spectrofluorimeter (excitation wavelength 499 nm). Stopped-flow measurements were performed in a High Tech stopped-flow device (50 msec dead time) connected to a Photon Technologies Alphascan Fluorimeter. One syringe contained a concentrated vesicle suspension and antifluoroscein antibody while the other contained buffer with sufficient HCl to change the final extravesicular pH as indicated. Data from 3-5 determination performed on a single day were averages. Results were fitted to single exponentials and .tau. was converted to permeability using the following equation: […]
# where JH + is the flux rate of protons in mole/sec, PH + is the permeability coefficient of protons in cm/sec, ΔC is the concentration gradient for protons across the vesicle membrane at the start of the experiment in mole/cm^3, and A is the surface area of a single F-dextran containing vesicle (7.1×10^-10 cm^2). See Harris, H. W., et.al., "Isolation and Characterization of Specialized Regions of Toad Urinary Bladder Apical Plasma Membrane Involved in the Water Permeability Response to Antidiuretic Hormone," J. Memb. Biol., 96:175-186 (1987). Jh + was calculated by multiplying 1/.tau. by the amount of buffer (in moles) in an individual vesicle (single vesicle volume was 1.41×10^-14 cm^3). .tau. is the mathematical term representing the time for the process to be 2/3 completed. Estimates of vesicle volume and surface area were calculated from dimensions of vesicles loaded with horseradish peroxides (HRP) instead of F-dextran.
# The effect of pCMBS on the rate of pH change in F-dextran loaded vesicles was determined. The materials and procedures of Example 1 were employed, except as noted. […] The results are plotted in FIG. 3. As illustrated, preincubation of vesicles with pCMBS inhibited 54% of oH + in F-dextran loaded vesicles. Control pH + was 3.9±0.5×10^-3 cm/sec (n-5; p<0.005 compared to control; unpaired t test). […]
# toad bladder [2] = details: NEM pretreatment; cited from earlier work
# toad bladder [3] = details: cited from earlier work
compound,measurement,setting,value
"CCN1C(=O)C=CC1=O [NEM, n-ethylmaleimide]",inhibitory effect on water flux across human erythrocyte membrane,[1],no inhibitory effect
same,effect on pH + compared to control (significance),"ADH water channels; NEM 2 mM, 1 h pretreatment on ice",NS compared to control
same,pH + (proton permeability coefficient) after pretreatment,"ADH water channels; NEM 2 mM, pretreated 1 h in HEPES buffer on ice, paired control 5.6±0.2×10^-3",6.2±0.9×10^-3 cm/sec
same,inhibitory effect on water flux across the toad bladder,toad bladder [2],no inhibitory effect
O=C(CCc1ccc(O)cc1)c1c(O)cc(O)cc1O [Phloretin],effect on apical membrane vesicle JH +,ADH water channels; phloretin 30 min prior to assay and present during stopped flow,without effect
same,PH + (proton permeability coefficient) of treated vesicles,"ADH water channels; vesicles exposed to phloretin 30 min prior to assay, stopped flow in continued presence, paired studies",2.6±0.4 ×10^-3 cm/sec
same,effect on ADH-stimulated urea flux in toad bladder,toad bladder [3],inhibits
"O=S(=O)(O)c1cc[c]([Hg][Cl])cc1 [pCMBS, parachloromercuribenzene sulfonate]",inhibition of oH + (proton permeability) in F-dextran loaded vesicles,"ADH water channels; 1 mM pCMBS, one hour preincubation at 4° C., vesicles with 17.6 mM HEPES pH 8.0, extravesicular pH lowered to 6.0",54%
